Results from paper PMC4535766, “Antiprotozoal Activity Profiling of Approved Drugs: A Starting Point toward Drug Repositioning” (PLoS ONE, 2015).
Like-named read-outs stand apart in the source and are kept apart here.

Columns and labels:
in vitro = details: rat
Experimental: (§1) Drug stock solutions (10mg/ml) were in DMSO (100%). […] Selectivity index (SI) was calculated as IC50 L6 cells/IC50 parasite.

[1] = test system: T. cruzi, strain Tulahuen C4, intracellular amastigotes; test: microbe, parasite or virus in culture; details: for IC50: Trypanosoma cruzi, TULAHUEN; for selectivity ratio: rat, Selectivity index: IC50 Cytotoxicity L6/ IC50 T. cruzi
Experimental: as §1

[2] = test system: T. b. rhodesiense strain STIB 900, trypomastigotes; test: In vitro activity against T. b. rhodesiense, serial drug dilution assay; details: for IC50: Trypanosoma brucei; for Activity against T. b. rhodesiense (in words): in vitro
Experimental: as §1

P. falciparum strain K1 = test: In vitro activity against P. falciparum, serial drug dilution assay; details: for IC50: Plasmodium falciparum; for selectivity ratio: rat
Experimental: as §1

[3] = Cytotoxicity on macrophages infected with L. donovani; assay type: cell-based, mouse; details: mouse
[4] = test system: intracellular amastigotes of L. donovani strain MHOM-ET-67/L82; test: Activity against Leishmania donovani intracellular amastigotes in mouse peritoneal macrophages; details: Leishmania donovani, Peritoneal macrophage, in Mus musculus
Experimental: (§2) After 24 h 1.2 x 10^5 amastigote L. donovani in 100 μl were added. The amastigotes were taken from an axenic culture grown at pH 5.4. Four hours later, the medium containing free amastigote forms was removed and replaced by fresh medium. The next day the medium was replaced by medium with or without a serial drug dilution of seven 3-fold dilution steps covering a range from 30 to 0.04 μg/ml. Parasite growth in the presence of the drug was compared to control wells. After 96 h of incubation, the medium was removed and the slides fixed with methanol for 10 min followed by staining with a 10% Giemsa solution. Infected and non-infected macrophages were counted for the control cultures and those exposed to the serial drug dilutions. The infection rates were determined. The results were expressed as a percentage reduction in parasite burden compared to control wells, and the IC50 was calculated by linear regression analysis. The collection of mouse peritoneal macrophages was done at the Swiss Tropical and Public Health Institute (Basel) according to the rules and regulations for the protection of animal rights ("Tierschutzverordnung") of the Swiss "Bundesamt für Veterinärwesen".

[5] = test system: L. donovani strain MHOM-ET-67/L82 amastigotes; test: in vitro; details: mouse, Selectivity index: IC50 Cytotoxicity macrophages/ IC50 L. donovani
Experimental: as §2

[6] = test system: axenic amastigotes of L. donovani, strain MHOM-ET-67/L82; test: In vitro activity against L. donovani axenic amastigotes, serial drug dilution assay; assay type: cell-based, Leishmania donovani
Experimental: as §1

[7] = Selectivity index: IC50 Cytotoxicity L6/ IC50 P. falciparum
[8] = macrophages infected with L. donovani, read-out: IC50 Cytotox. mac.inf.
[9] = 96 h, read-out: IC50 L. don. intracell
[10] = axenic amastigotes, strain MHOM-ET-67/L82, means of two independent assays, read-out: IC50 L. don. axen.
[11] = Leishmania donovani, axenic amastigotes, strain MHOM-ET-67/L82, means of two independent assays, read-out: IC50 L. don. axen.
[12] = L6 cells, IC50 Cytotox. L6, L6 cells, means of two independent assays
[13] = infected macrophages, read-out: Cytotox. mac.inf. IC50
[14] = read-out: L. don. intracell IC50
[15] = Leishmania donovani, L. donovani axenic amastigotes, read-out: L. don. axen. IC50

Compound `C[C@H]1[C@H](OC(=O)CCC(=O)O)O[C@@H]2O[C@@]3(C)CC[C@H]4[C@H](C)CC[C@@H]1[C@@]24OO3` [Artesunate] has an IC50 (in vitro; IC50 Cytotox. L6) of 0.78 µM, an IC50 ([1]; read-out: IC50 T. cruzi) of 8.97 µM and an IC50 ([2]; read-out: IC50 T. b. rhod.) of 16.8 µM. For the same compound, the IC50 (P. falciparum strain K1; K1, read-out: IC50 P. falc. K1) was 3 nM, the selectivity ratio (P. falciparum strain K1; [7]) was 260 and the IC50 at 96 h [3, 8] was > 7.8 µM. For the same compound, the IC50 [4, 9] was > 7.8 µM, the selectivity ratio at 96 h [5] was > 22 and the IC50 ([6]; axenic amastigotes, strain MHOM-ET-67/L82, means of two independent assays, listed as artesunate, read-out: IC50 L. don. axen.) was < 3000 nM. For the same compound, the IC50 [6, 10] was 350 nM.
`O=C(N/N=C/c1ccc([N+](=O)[O-])o1)c1ccc(O)cc1` [Nifuroxazide] gave an IC50 (in vitro; IC50 Cytotox. L6) of 12.3 µM, an IC50 ([1]; read-out: IC50 T. cruzi) of 0.23 µM and a selectivity ratio [1] of 54. For the same compound, the IC50 ([2]; read-out: IC50 T. b. rhod.) was 0.03 µM, the selectivity ratio ([2]; rat) was 410 and the IC50 (P. falciparum strain K1; K1, read-out: IC50 P. falc. K1) was 7820 nM. The IC50 at 96 h [3, 8] was 36.2 µM, the IC50 [4, 9] was > 10.9 µM and the selectivity ratio at 96 h [5] was 13. For the same compound, the IC50 [6, 11] was < 3000 nM and the IC50 [6, 10] was 2830 nM.
For `O=C1CN(/N=C/c2ccc([N+](=O)[O-])o2)C(=O)N1` [Nitrofurantoine], the IC50 (in vitro; IC50 Cytotox. L6) was 90.3 µM, the IC50 ([1]; read-out: IC50 T. cruzi) was 4.35 µM and the selectivity ratio [1] was 21. For the same compound, the IC50 ([2]; read-out: IC50 T. b. rhod.) was 0.5 µM, the “Selectivity index: IC50 Cytotoxicity L6/ IC50 T. b. rhodesiense” value ([2]; rat) was 181 and the selectivity ratio ([2]; rat, Selectivity index: IC50 Cytotoxicity L6/ IC50 T. b. rhodesiense) was 180. The IC50 at 96 h [3, 8] was 125 µM, the IC50 [4, 9] was > 41.8 µM and the selectivity ratio at 96 h [5] was 59. The IC50 [6, 11] was < 3000 nM and the IC50 [6, 10] was 2120 nM.
`CN1CCC(=C2c3ccccc3CCc3sccc32)CC1` [Pizotifen] gave an IC50 (in vitro; [12]) of 45 µM, an IC50 ([1]; read-out: IC50 T. cruzi) of 30.6 µM and an IC50 ([2]; read-out: IC50 T. b. rhod.) of 3.99 µM. The selectivity ratio ([2]; rat) was 11, the IC50 (P. falciparum strain K1; K1, read-out: IC50 P. falc. K1) was 1860 nM and the IC50 at 96 h ([3]; mouse peritoneal macrophages infected with L. donovani, macrophages infected with L. donovani, read-out: IC50 Cytotox. mac.inf.) was > 102 µM. For the same compound, the IC50 [4, 9] was > 33.9 µM and the IC50 [6, 11] was 215000 nM.
In the case of `CN(C)CCCN1c2ccccc2Sc2ccccc21` [Promazine], the IC50 (in vitro; [12]) is reported as 30.1 µM, the IC50 ([1]; read-out: IC50 T. cruzi) is reported as 49.1 µM and the IC50 ([2]; read-out: IC50 T. b. rhod.) is reported as 2.16 µM. For the same compound, the selectivity ratio ([2]; rat, L6 cells versus T. b. rhodesiense STIB 900 trypomastigotes) was 14, the IC50 (P. falciparum strain K1; K1, read-out: IC50 P. falc. K1) was 490 nM and the selectivity ratio (P. falciparum strain K1; L6 cells versus P. falciparum K1, Selectivity index: IC50 Cytotoxicity L6/ IC50 P. falciparum) was 61. The IC50 at 96 h [3, 8] was > 35.2 µM, the IC50 [4, 9] was > 35.2 µM and the IC50 [6, 11] was > 316000 nM.
In the case of `NC(=O)c1cnccn1` [Pyrazinamide], the IC50 (in vitro; IC50 Cytotox. L6) is reported as 458 µM, the IC50 ([1]; read-out: IC50 T. cruzi) is reported as 565 µM and the IC50 ([2]; read-out: IC50 T. b. rhod.) is reported as > 812 µM. The IC50 (P. falciparum strain K1; K1, read-out: IC50 P. falc. K1) was 179000 nM, the IC50 at 96 h [3, 8] was > 244 µM and the IC50 [4, 9] was > 244 µM. The IC50 [6, 11] was > 812000 nM.
Work on `CCc1nc(N)nc(N)c1-c1ccc(Cl)cc1` [Pyrimethamine] yielded an IC50 (in vitro; IC50 Cytotox. L6) of 2.51 µM, an IC50 ([1]; read-out: IC50 T. cruzi) of 5.71 µM and an IC50 ([2]; read-out: IC50 T. b. rhod.) of 6.75 µM. The IC50 (P. falciparum strain K1; K1, read-out: IC50 P. falc. K1) was 9850 nM, the IC50 at 96 h [3, 8] was > 12.1 µM and the IC50 [4, 9] was > 12.1 µM. It also gave an IC50 [6, 11] of 278000 nM.
With `CO[C@H]1/C=C/O[C@@]2(C)Oc3c(C)c(O)c4c(c3C2=O)C2=NC3(CCN(CC(C)C)CC3)NC2=C(NC(=O)/C(C)=C\C=C\[C@H](C)[C@H](O)[C@@H](C)[C@@H](O)[C@@H](C)[C@H](OC(C)=O)[C@@H]1C)C4=O` [Rifabutin] the IC50 (in vitro; Cytotox. L6 IC50) was 60.9 µM, the IC50 ([1]; read-out: T. cruzi IC50) was 27.5 µM and the IC50 ([2]; read-out: T. b. rhod. IC50) was 12.6 µM. For the same compound, the “Activity against T. b. rhodesiense (in words)” value (“Activity” for short) [2] was “devoid of antitrypanosomal activity”, the IC50 (P. falciparum strain K1; K1, read-out: P. falc. IC50) was 1590 nM and the IC50 at 96 h [3, 13] was > 35.4 µM. For the same compound, the IC50 [4, 14] was > 35.4 µM and the IC50 [6, 15] was 56400 nM.
For `CO[C@H]1/C=C/O[C@@]2(C)Oc3c(C)c(O)c4c(O)c(c(/C=N/N5CCN(C)CC5)c(O)c4c3C2=O)NC(=O)/C(C)=C\C=C\[C@H](C)[C@H](O)[C@@H](C)[C@@H](O)[C@@H](C)[C@H](OC(C)=O)[C@@H]1C` [Rifampicin], the IC50 (in vitro; IC50 Cytotox. L6) was 75.2 µM, the IC50 ([1]; read-out: T. cruzi IC50) was > 109 µM and the IC50 ([2]; read-out: T. b. rhod. IC50) was 16.7 µM. For the same compound, the “Activity” value [2] was “devoid of antitrypanosomal activity”, the IC50 (P. falciparum strain K1; K1, read-out: IC50 P. falc. K1) was 100 nM and the IC50 at 96 h [3, 8] was > 36.5 µM. The IC50 at 96 h [3, 13] was > 36.5 µM, the IC50 [4, 9] was > 36.5 µM and the selectivity ratio at 96 h [5] was > 24. The IC50 [6, 11] was < 3000 nM and the IC50 [6, 10] was 1530 nM.
`CO[C@H]1/C=C/O[C@@]2(C)Oc3c(C)c(O)c4c(O)c(c5c(nc6cc(C)ccn65)c4c3C2=O)NC(=O)/C(C)=C\C=C\[C@H](C)[C@H](O)[C@@H](C)[C@@H](O)[C@@H](C)[C@H](OC(C)=O)[C@@H]1C` [Rifaximin] showed an IC50 (in vitro; IC50 Cytotox. L6) of 88 µM, an IC50 ([1]; read-out: T. cruzi IC50) of 40.2 µM and an IC50 ([2]; read-out: T. b. rhod. IC50) of 17.1 µM. For the same compound, the “Activity” value [2] was “devoid of antitrypanosomal activity”, the IC50 (P. falciparum strain K1; K1, read-out: IC50 P. falc. K1) was 920 nM and the selectivity ratio (P. falciparum strain K1; [7]) was 96. The IC50 at 96 h [3, 13] was > 38.2 µM, the IC50 [4, 14] was > 38.2 µM and the IC50 [6, 15] was 15000 nM.
